Data: PubChem BioAssay AID1959 (Broad Institute, 2009)
The source made the active and inactive calls.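 How the source made its calls: active means growth-inhibition EC50 no more than tenfold above the top tested dose; inconclusive means flat fit between 30% and 70% inhibition, or unreliable fit; inactive means EC50 more than tenfold above the top tested dose.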

These compounds were tested on E. coli NEB5alpha growth, BacTiter-Glo luminescence, 4 h (assay: Escherichia coli growth inhibition, dose response, counter-screen for MEX-5/POS-1 RNA-binding inhibitor project, luminescence, NEB5alpha (AID 1959);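 further: pUC19-transformed ampicillin-resistant cells grown in LB with ampicillin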).
With `O=C(O)CCC(=O)NNc1nc(-c2ccccc2)c2cc(Cl)ccc2n1` the EC50 was > 11 µM (inactive).
With `Cc1ccc(N=Cc2sc(O)c3ccccc23)c(C)c1` the EC50 was > 11 µM (inactive).
In the case of `CCC(=O)Nc1ccc2nc3c(=O)[nH]c(=S)[nH]c3nc2c1`, the EC50 is reported as > 11 µM (inactive).
In the case of `CC1OC(Oc2c(-c3cc(O)c(O)c(O)c3)oc3cc(O)cc(O)c3c2=O)C(O)C(O)C1O` (stereo not drawn), the EC50 is reported as > 11 µM (inactive).
With `CCC(=S)/C=C1\Sc2ccc3ccccc3c2N1CCCS(=O)(=O)O` the EC50 was > 11 µM (inactive).
In the case of `Cc1ccc2cc(/C=C(\C#N)C(N)=O)c(N3CCCCC3)nc2c1`, the EC50 is reported as > 11 µM (inactive).
With `O=C1NC(=O)N(c2ccccc2)C(=O)/C1=C/c1coc2ccc(O)cc2c1=O` the EC50 was > 11 µM (inactive).
With `CC(=O)C1=C(c2ccccc2)NC(=O)NC1c1ccc(O)c(O)c1` (stereo not drawn) the EC50 was > 11 µM (inactive).
In the case of `CCCCC1=CC2=C(c3ccco3)C(=O)C(C)(OC(=O)c3ccc(OC)cc3)C(=O)C2=CN1CCN1CCOCC1` (stereo not drawn), the EC50 is reported as > 11 µM (inactive).
`O=C(O)c1cccc(-n2cccc2/C=C2/SC(=O)N(CC(=O)N3CCCC3)C2=O)c1` was tested, and the EC50 was > 11 µM (inactive).
`Oc1ccc(NC(=S)N=Nc2c(O)[nH]c3ccccc23)cc1` was tested, and the EC50 was > 11 µM (inactive).
`O=C(N/N=C\c1cc([N+](=O)[O-])ccc1N1CCCC1)c1ccccn1` was tested, and the EC50 was > 11 µM (inactive).
For `COC(=O)c1ccc(-n2c(CCC(=O)O)ccc2-c2ccc(C)cc2)cc1`, the EC50 was > 11 µM (inactive).
For `Cc1c(N=C2Nc3cccc4cccc2c34)c(=O)n(-c2ccccc2)n1C`, the EC50 was > 11 µM (inactive).
For `Cn1c(=O)c(-c2cc(=O)[nH][nH]2)c(O)c2ccccc21`, the EC50 was > 11 µM (inactive).
For `Cc1ccc(C)n1-c1ccc(C(=O)O)cc1`, the EC50 was > 11 µM (inactive).
In the case of `O=C1N=c2ccc([N+](=O)[O-])cc2=C1c1sc(=O)[nH]c1O`, the EC50 is reported as > 11 µM (inactive).
`O=c1c2ccccc2oc2ccc(NCCCn3ccnc3)cc12` was tested, and the EC50 was > 11 µM (inactive).
For `CC(C)(C)c1ccc(/C=C2\Oc3cc(O)ccc3C2=O)cc1`, the EC50 was > 11 µM (inactive).
With `Cc1ccc(C)n1-c1ccc2c(c1)COC2=O` the EC50 was > 11 µM (inactive).
`O=C(NCCO)c1ccc2nc(-c3ccco3)c(-c3ccco3)nc2c1` was tested, and the EC50 was > 11 µM (inactive).
With `CC1=CC(=C(C#N)c2nc3ccccc3s2)C=C(C)N1CC1CCCO1` (stereo not drawn) the EC50 was > 11 µM (inactive).
In the case of `Cc1nc2ccccc2c(=O)n1/N=C/c1ccc(O)c(O)c1O`, the EC50 is reported as > 11 µM (inactive).
With `O=C(NCc1ccccn1)C1Nc2ccc(OC(F)(F)F)cc2C2C=CCC12` (stereo not drawn) the EC50 was > 11 µM (inactive).
For `COC(=O)c1ccc(-n2c(C)cc(/C=N/Nc3nc(C)cc(=O)[nH]3)c2C)cc1`, the EC50 was > 11 µM (inactive).
`Cc1cc(/C=N/n2cnnc2)c(C)n1-c1ccc(C(=O)O)cc1` was tested, and the EC50 was > 11 µM (inactive).
In the case of `O=C(O)c1cccc(-n2cccc2/C=C2/NC(=O)N(Cc3ccccc3F)C2=O)c1`, the EC50 is reported as > 11 µM (inactive).
`COc1ccc(/C=C2\CCCC(C(=O)C(F)(F)F)=C2O)cc1OC` was tested, and the EC50 was > 11 µM (inactive).
With `CCc1ccc(/C=C2\Oc3c(ccc(O)c3CN3CCN(CCO)CC3)C2=O)cc1` the EC50 was > 11 µM (inactive).
`Cc1cc2c3c(c1)C1(C(=O)N3C(C)(C)CC2C)C(C#N)=C(N)OC2=C1C(=O)CC(C)(C)C2` (stereo not drawn) was tested, and the EC50 was > 11 µM (inactive).
For `Cc1c(CN2CCCCC2)c(O)n(CCCO)c(=O)c1C#N`, the EC50 was > 11 µM (inactive).
With `Oc1ccc(/C=N/N2CCCCC2)c(O)c1O` the EC50 was > 11 µM (inactive).
With `NC(=O)CC(NC(=O)Cc1ccc(Cl)cc1)c1ccc(NC2CCCCCC2)c([N+](=O)[O-])c1` (stereo not drawn) the EC50 was > 11 µM (inactive).
In the case of `Cc1c(N)cc(N)cc1C(=O)O`, the EC50 is reported as > 11 µM (inactive).
In the case of `Cc1ccc(NCC(=O)N/N=C/c2ccc(C(=O)O)cc2)cc1`, the EC50 is reported as > 11 µM (inactive).
`CCC(=O)OC1(C)C(=O)C=C2C=C(CCCCNC(=O)OC(C)(C)C)OC=C2C1=O` (stereo not drawn) was tested, and the EC50 was > 11 µM (inactive).
`CC(C)OC(=O)c1nn2c(C(F)(F)F)cc(-c3ccc(Br)o3)nc2c1Br` was tested, and the EC50 was > 11 µM (inactive).
`CC1CC=C2C(C#N)=C(N)C(C#N)(C#N)C(c3cccs3)C2C1` (stereo not drawn) was tested, and the EC50 was > 11 µM (inactive).
`CCOCCCn1c(=NC(=O)c2cccs2)c(C#N)cc2c(=O)n3cccc(C)c3nc21` was tested, and the EC50 was > 11 µM (inactive).
In the case of `COc1cccc(C2c3c(oc4ccccc4c3=O)C(=O)N2Cc2ccco2)c1` (stereo not drawn), the EC50 is reported as > 11 µM (inactive).
For `COc1ccc(C(=O)/C=C/Nc2ccc([N+](=O)[O-])cc2C)c(OC)c1`, the EC50 was > 11 µM (inactive).
With `CC1(OC(=O)c2cccs2)C(=O)C=C2C=C(C3CC3)OC=C2C1=O` (stereo not drawn) the EC50 was > 11 µM (inactive).
With `Cc1cc(O)cc2c1C(=O)/C(=C/c1ccco1)O2` the EC50 was > 11 µM (inactive).
For `CN(C)c1ccc(/C=N/N(CCC(=O)NC(C)(C)C)C2=NS(=O)(=O)c3ccccc32)cc1`, the EC50 was > 11 µM (inactive).
For `CCOC(=O)[C@]1(C#N)[C@@H]2C=CC(C(C)=O)=CN2[C@@H](C(N)=O)[C@@H]1c1ccsc1`, the EC50 was > 11 µM (inactive).
With `CCOC(=O)c1c(-n2c(C)cc(C=C3C(=O)NC(=O)NC3=O)c2C)sc2c1CCCC2` the EC50 was > 11 µM (inactive).
In the case of `COC(=O)CCC(=O)OC1(C)C(=O)C2=COC(c3ccc(OC)cc3)=CC2=C(Br)C1=O` (stereo not drawn), the EC50 is reported as > 11 µM (inactive).
With `COc1ccc(S(=O)(=O)Nc2ccc(O)c(Sc3ncn[nH]3)c2)cc1` the EC50 was > 11 µM (inactive).
With `O=C1NC(=Nc2ccccc2Cl)S/C1=C\c1cc([N+](=O)[O-])ccc1O` the EC50 was > 11 µM (inactive).
With `COC(=O)c1cc(C(=O)OC)cc(-n2c(C)cc(C=O)c2C)c1` the EC50 was > 11 µM (inactive).
For `O=C1NC(=O)N(c2ccccc2F)C(=O)/C1=C/c1cn(CC(=O)N2CCOCC2)c2ccccc12`, the EC50 was > 11 µM (inactive).
In the case of `N#CC1=C(N)C(C#N)(C#N)C(c2cccnc2)C2COCC=C12` (stereo not drawn), the EC50 is reported as > 11 µM (inactive).
For `c1ccc(-c2nnc(-c3ccccn3)nn2)nc1`, the EC50 was > 11 µM (inactive).
With `N=C1/C(=C\c2ccc(SCc3ccco3)o2)C(=O)N=C2SC=NN12` the EC50 was > 11 µM (inactive).
In the case of `Cc1ccc(N/N=C/c2c(C)c(C#N)c(=O)n(C)c2O)cc1C`, the EC50 is reported as > 11 µM (inactive).
`CCN1CCN(Cc2c(O)ccc3c2O/C(=C\c2ccccc2)C3=O)CC1` was tested, and the EC50 was > 11 µM (inactive).
`CCN(C(=O)c1cc(Cl)ccc1OC)C1CCCCC1` was tested, and the EC50 was > 11 µM (inactive).
`CN(C)c1ccc(O)c2c1CC1CC3C(N(C)C)C(=O)C(C(N)=O)=C(O)[C@@]3(O)C(=O)C1=C2O` (stereo partly drawn) was tested, and the EC50 was 6.49 µM.
With `COC(=O)CCC(=O)OC1(C)C(=O)C=C2C=C(c3ccsc3)OC=C2C1=O` (stereo not drawn) the EC50 was > 11 µM (inactive).
With `C1=CC2c3ccccc3NC(c3ccncc3)C2C1` (stereo not drawn) the EC50 was > 11 µM (inactive).
`O=C(c1ccco1)[C@@H]1[C@@H]2C(=O)N(c3ccccc3)C(=O)[C@@H]2C2c3ccccc3C=CN21` (stereo partly drawn) was tested, and the EC50 was > 11 µM (inactive).
In the case of `CC(/C=C1\N=C(SCc2ccccc2Cl)SC1=O)=C\c1ccccc1`, the EC50 is reported as > 11 µM (inactive).
In the case of `C=CCN1C(=O)S/C(=C\c2ccc(N3CCOCC3)cc2C)C1=O`, the EC50 is reported as > 11 µM (inactive).
`CS(=O)(=O)Oc1ccc2c(c1)O/C(=C\C=C\c1ccccc1)C2=O` was tested, and the EC50 was > 11 µM (inactive).
With `CCN(CC)c1ccc(/C=C/C(=O)c2ccc(Br)cc2)cc1` the EC50 was > 11 µM (inactive).
With `COc1ccc(C2C(C(=O)c3cccs3)=C(O)C(=O)N2c2nnc(C)s2)cc1OC` (stereo not drawn) the EC50 was > 11 µM (inactive).
`C[C@@H]1O[C@@H](Oc2c(-c3cc(O)c(O)c(O)c3)oc3cc(O)cc(O)c3c2=O)[C@H](O)[C@H](O)[C@H]1O` was tested, and the EC50 was > 11 µM (inactive).
`CCOc1cc(/C=C2\SC(=Nc3ccc(CC)cc3)NC2=O)ccc1OCC(=O)O` was tested, and the EC50 was > 11 µM (inactive).
In the case of `O=C(O)c1ccccc1-n1cccc1C(=O)O`, the EC50 is reported as > 11 µM (inactive).
In the case of `CCC(=O)OC1(C)C(=O)C=C2C=C(c3ccsc3)OC=C2C1=O` (stereo not drawn), the EC50 is reported as > 11 µM (inactive).
`CN1C(=O)C(=Cc2cn(CC(=O)N3CCCC3)c3ccccc23)C(=O)N(C)C1=O` was tested, and the EC50 was > 11 µM (inactive).
In the case of `COc1ccc(C2=CC3=C(Br)C(=O)C(C)(OC(=O)C4CCCC4)C(=O)C3=CO2)cc1` (stereo not drawn), the EC50 is reported as > 11 µM (inactive).
With `CC1=C(C#N)C(=O)OC(C)(C)C1` the EC50 was > 11 µM (inactive).
